Reference: patent publication US20250282799A1, “SUBSTITUTED PYRIDO[4,3-d]PYRIMIDINES AS KRAS MODULATORS” (Alterome Therapeutics, Inc., priority 2023, published 2025)

Test system: KRAS G12V dependent lung adenocarcinoma cell line, NCI-H441
Assay: Cellular pERK (Thr202/Tyr204) FRET/HTRF assay
Assay type: cell-based
Settings: Homo sapiens, NCI-H441, cellular pERK (Thr202/Tyr204) HTRF, NCI-H441 cells
Summary of the method: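 Using a mix-and-read HTRF kit, phospho-ERK (Thr202/Tyr204) was detected in NCI-H441 lysates following 1 hr compound incubation at 37 °C, 5% CO2. Cells had been seeded overnight beforehand, and IC50 was derived by curve fitting.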

Row | Compound | IC50
1 | C#Cc1c(F)ccc2cc(N)cc(-c3ncc4c(N5CCOC[C@H]6[C@H](F)[C@H]65)nc(OC[C@@]56CC7(CC7)CN5CCC65CC5)nc4c3F)c12 [Example 207, 4-(2-(((S)-dihydro-5′H-dispiro[cyclopropane-1,1′-pyrrolizine-6′,1″- cyclopropan]-7a′(7′H)-yl)methoxy)-8-fluoro-4-((1S,7S,8S)-8-fluoro-5-oxa-2-azabicyclo[5.1.0]octan-2-yl)pyrido[4,3-d]pyrimidin-7-yl)-5-ethynyl-6-fluoronaphthalen-2-amine] | < 50 nM
2 | C#Cc1c(F)ccc2cc(N)cc(-c3ncc4c(N5CCOC[C@H]6[C@H](F)[C@H]65)nc(OC[C@@]56CCCN5C[C@H](F)C6)nc4c3F)c12 [Example 212, 5-Ethynyl-6-fluoro-4-(8-fluoro-4-((1S,7S,8S)-8-fluoro-5-oxa-2-azabicyclo[5.1.0]octan-2-yl)-2-(((2R,7aS)-2-fluorotetrahydro-1H-pyrrolizin-7a(5H)-yl)methoxy)pyrido[4,3-d]pyrimidin-7-yl)naphthalen-2-amine] | < 50 nM
3 | [2H]C([2H])(Oc1nc(N2CCOC[C@H]3[C@H](F)[C@H]32)c2cnc(-c3cc(N)cc4ccc(F)c(C#C)c34)c(F)c2n1)C12CCCN1CCC2 [Example 213, 5-ethynyl-6-fluoro-4-(8-fluoro-4-((1S,7S,8S)-8-fluoro-5-oxa-2-azabicyclo[5.1.0]octan-2-yl)-2-((tetrahydro-1H-pyrrolizin-7a(5H)-yl)methoxy-d2)pyrido[4,3-d]pyrimidin-7-yl)naphthalen-2-amine] | < 50 nM
4 | [2H]C([2H])(Oc1nc(N2CCOC[C@H]3[C@H](F)[C@H]32)c2cnc(-c3cc(N)cc4ccc(F)c(C#C)c34)c(F)c2n1)[C@@]12CCCN1CC(F)(F)C2 [Example 220, 4-(2-(((S)-2,2-difluorotetrahydro-1H-pyrrolizin-7a(5H)-yl)methoxy-d2)-8-fluoro-4-((1S,7S,8S)-8-fluoro-5-oxa-2-azabicyclo[5.1.0]octan-2-yl)pyrido[4,3-d]pyrimidin-7-yl)-5-ethynyl-6-fluoronaphthalen-2-amine] | < 50 nM
5 | C=C1CN2CCC3(CC3)[C@@]2(COc2nc(N3CCOC[C@H]4[C@H](F)[C@H]43)c3cnc(-c4cc(N)c(F)c(C)c4C(F)(F)F)c(F)c3n2)C1 [Example 226, 2-fluoro-5-(8-fluoro-4-((1S,7S,8S)-8-fluoro-5-oxa-2-azabicyclo[5.1.0]octan-2-yl)-2-(((R)-6′-methylenetetrahydrospiro[cyclopropane-1,1′-pyrrolizin]-7a′(5′H)-yl)methoxy)pyrido[4,3-d]pyrimidin-7-yl)-3-methyl-4-(trifluoromethyl)aniline] | < 50 nM
6 | [2H]C([2H])(F)Oc1c(F)ccc2cc(N)cc(-c3ncc4c(N5CCOC[C@H]6[C@H](F)[C@H]65)nc(OC[C@@]56CC7(CC7)CN5CCC65CC5)nc4c3F)c12 [Example 227, 4-(2-(((S)-dihydro-5′H-dispiro[cyclopropane-1,1′-pyrrolizine-6′,1″- cyclopropan]-7a′(7′H)-yl)methoxy)-8-fluoro-4-((1S,7S,8S)-8-fluoro-5-oxa-2-azabicyclo[5.1.0]octan-2-yl)pyrido[4,3-d]pyrimidin-7-yl)-6-fluoro-5-(fluoromethoxy-d2)naphthalen-2-amine] | < 50 nM
7 | [2H]C([2H])(F)Oc1c(F)ccc2cc(N)cc(-c3ncc4c(N5CCOC[C@H]6[C@H](F)[C@H]65)nc(OC[C@]56CC7(CC7)CN5CCC65CC5)nc4c3F)c12 [Example 228, 4-(2-(((R)-dihydro-5′H-dispiro[cyclopropane-1,1′-pyrrolizine-6′,1″- cyclopropan]-7a′(7′H)-yl)methoxy)-8-fluoro-4-((1S,7S,8S)-8-fluoro-5-oxa-2-azabicyclo[5.1.0]octan-2-yl)pyrido[4,3-d]pyrimidin-7-yl)-6-fluoro-5-(fluoromethoxy-d2)naphthalen-2-amine] | < 50 nM
8 | [2H]C([2H])(Oc1nc(N2CCOC[C@H]3[C@H](F)[C@H]32)c2c(OC)nc(-c3cccc4ccc(F)c(C#C)c34)c(F)c2n1)[C@@]12CCCN1C[C@H](F)C2 [Example 235, (1S,7S,8S)-2-(7-(8-ethynyl-7-fluoronaphthalen-1-yl)-8-fluoro-2-(((2R,7aS)-2-fluorotetrahydro-1H-pyrrolizin-7a(5H)-yl)methoxy-d2)-5-methoxypyrido[4,3-d]pyrimidin-4-yl)-8-fluoro-5-oxa-2-azabicyclo[5.1.0]octane] | 500 to 10000 nM
9 | [2H]C([2H])(Oc1nc(N2CCOC[C@@H]3[C@@H](F)[C@@H]32)c2c(OC)nc(-c3cccc4ccc(F)c(C#C)c34)c(F)c2n1)[C@@]12CCCN1C[C@H](F)C2 [Example 236, (1R,7R,8R)-2-(7-(8-ethynyl-7-fluoronaphthalen-1-yl)-8-fluoro-2-(((2R,7aS)-2-fluorotetrahydro-1H-pyrrolizin-7a(5H)-yl)methoxy-d2)-5-methoxypyrido[4,3-d]pyrimidin-4-yl)-8-fluoro-5-oxa-2-azabicyclo[5.1.0]octane] | 500 to 10000 nM
10 | C#Cc1c(F)ccc2cc(N)cc(-c3ncc4c(N5CCOC[C@H]6[C@H](F)[C@H]65)nc(OC[C@@]56CCC(C)(C)N5C[C@H](F)C6)nc4c3F)c12 [Example 239, 5-ethynyl-6-fluoro-4-(8-fluoro-2-(((2R,7aS)-2-fluoro-5,5-dimethyltetrahydro-1H-pyrrolizin-7a(5H)-yl)methoxy)-4-((1S,7S,8S)-8-fluoro-5-oxa-2-azabicyclo[5.1.0]octan-2-yl)pyrido[4,3-d]pyrimidin-7-yl)naphthalen-2-amine] | < 50 nM
11 | [2H]C([2H])(Oc1nc(N2CCOCC3C2C3(Cl)Cl)c2cnc(-c3cc(N)cc4ccc(F)c(C#C)c34)c(F)c2n1)[C@@]12CCCN1C[C@H](F)C2 (stereo partly drawn) [Example 240, 4-(4-(8,8-dichloro-5-oxa-2-azabicyclo[5.1.0]octan-2-yl)-8-fluoro-2-(((2R,7aS)-2-fluorotetrahydro-1H-pyrrolizin-7a(5H)-yl)methoxy-d2)pyrido[4,3-d]pyrimidin-7-yl)-5-ethynyl-6-fluoronaphthalen-2-amine] | 500 to 10000 nM
12 | [2H]C([2H])(Oc1nc(N2CCOC[C@H]3[C@H](F)[C@H]32)c2c(OC)nc(-c3cc(O)cc4ccc(F)c(C#C)c34)c(F)c2n1)[C@@]12CCCN1C[C@H](F)C2 [Example 241, 5-ethynyl-6-fluoro-4-(8-fluoro-4-((1S,7S,8S)-8-fluoro-5-oxa-2-azabicyclo[5.1.0]octan-2-yl)-2-(((2R,7aS)-2-fluorotetrahydro-1H-pyrrolizin-7a(5H)-yl)methoxy-d2)-5-methoxypyrido[4,3-d]pyrimidin-7-yl)naphthalen-2-ol] | < 50 nM
13 | C#Cc1c(F)ccc2cc(N)cc(-c3ncc4c(N5CCOC[C@H]6[C@H](F)[C@H]65)nc(OC[C@@]56C=C(C)CN5CCC65CC5)nc4c3F)c12 [Example 244, 5-ethynyl-6-fluoro-4-(8-fluoro-4-((1S,7S,8S)-8-fluoro-5-oxa-2-azabicyclo[5.1.0]octan-2-yl)-2-(((S)-6′-methyl-2′,3′-dihydrospiro[cyclopropane-1,1′-pyrrolizin]-7a′(5′H)-yl)methoxy)pyrido[4,3-d]pyrimidin-7-yl)naphthalen-2-amine] | < 50 nM
14 | C#Cc1c(F)ccc2cccc(-c3ncc4c(N5CCOC[C@H]6[C@H](F)[C@H]65)nc(OC[C@]56C[C@@H](F)CN5C[C@@H](CNC(C)=O)C6)nc4c3F)c12 [Example 245, N-(((2R,6R,7aS)-7a-(((7-(8-ethynyl-7-fluoronaphthalen-1-yl)-8-fluoro-4-((1S,7S,8S)-8-fluoro-5-oxa-2-azabicyclo[5.1.0]octan-2-yl)pyrido[4,3-d]pyrimidin-2-yl)oxy)methyl)-6-fluorohexahydro-1H-pyrrolizin-2-yl)methyl)acetamide] | 50 to 500 nM
15 | C#Cc1c(F)ccc2cccc(-c3ncc4c(N5CCOC[C@H]6[C@H](F)[C@H]65)nc(OC[C@]56C[C@@H](F)CN5C[C@@H](CN)C6)nc4c3F)c12 [Example 246, ((2R,6R,7aS)-7a-(((7-(8-ethynyl-7-fluoronaphthalen-1-yl)-8-fluoro-4-((1S,7S,8S)-8-fluoro-5-oxa-2-azabicyclo[5.1.0]octan-2-yl)pyrido[4,3-d]pyrimidin-2-yl)oxy)methyl)-6-fluorohexahydro-1H-pyrrolizin-2-yl)methanamine] | 500 to 10000 nM
16 | [2H]c1cc2cc(N)cc(-c3ncc4c(N5CCOC[C@H]6[C@H](F)[C@H]65)nc(OC([2H])([2H])[C@@]56CCCN5C[C@H](F)C6)nc4c3F)c2c(C#C)c1F [Example 256, 5-ethynyl-6-fluoro-4-(8-fluoro-4-((1S,7S,8S)-8-fluoro-5-oxa-2-azabicyclo[5.1.0]octan-2-yl)-2-(((2R,7aS)-2-fluorotetrahydro-1H-pyrrolizin-7a(5H)-yl)methoxy-d2)pyrido[4,3-d]pyrimidin-7-yl)naphthalen-7-d-2-amine] | < 50 nM
17 | C#Cc1c(F)ccc2cc(N)cc(-c3ncc4c(N5CCOC[C@H]6[C@H](F)[C@H]65)nc(OC[C@]56C[C@@H](F)CN5C[C@@H](CNC(C)=O)C6)nc4c3F)c12 [Example 257, N-(((2R,6R,7aS)-7a-(((7-(3-amino-8-ethynyl-7-fluoronaphthalen-1-yl)-8-fluoro-4-((1S,7S,8S)-8-fluoro-5-oxa-2-azabicyclo[5.1.0]octan-2-yl)pyrido[4,3-d]pyrimidin-2-yl)oxy)methyl)-6-fluorohexahydro-1H-pyrrolizin-2-yl)methyl)acetamide] | 50 to 500 nM
18 | C#Cc1c(F)ccc2cc(N)cc(-c3ncc4c(N5CCOC[C@H]6[C@H](F)[C@H]65)nc(OC[C@]56C[C@@H](F)CN5C[C@@H](CN)C6)nc4c3F)c12 [Example 258, 4-(2-(((2R,6R,7aS)-2-(aminomethyl)-6-fluorotetrahydro-1H-pyrrolizin-7a(5H)-yl)methoxy)-8-fluoro-4-((1S,7S,8S)-8-fluoro-5-oxa-2-azabicyclo[5.1.0]octan-2-yl)pyrido[4,3-d]pyrimidin-7-yl)-5-ethynyl-6-fluoronaphthalen-2-amine] | 50 to 500 nM
